The nature of data set [1]: serum stability in fetal calf serum (HPLC-MS). It counts as in vitro ADME. As to conditions: 37 °C. The procedure: Therefore, we only investigated the stability of the novel complexes in fetal calf serum (FCS). As reference again Co(acac)2LEGFR[26] was included. The complexes were dissolved in 50 mM phosphate puffer and mixed 1 : 10 with fetal calf serum (FCS; buffered with 150 mM phosphate buffer to keep a stable pH of 7.4) to a final concentration of 50 μM. The samples were incubated at 37 °C and after 0, 2, 4, 6, 24 and 26 h extracted with acetonitrile and measured by HPLC-MS. […] This indeed confirms, that by avoiding the direct attachment of the ethylenediamine moiety to an aromatic ring system, complexes with much higher stability can be generated. Since no distinct difference in stability between Co(acac)2LPon and Co(Meacac)2LPon within 26 h could be observed, measurements were repeated up to 72 h.
For serum stability measurements, 135 μL FCS, buffered with 150 mM phosphate (Na2HPO4/NaH2PO4) to maintain a pH value of 7.4, were mixed with 15 μL of a 500 μM stock solution of the respective complex in 50 mM phosphate buffer to reach a final concentration of 50 μM. The samples were incubated at 37 °C. At different time points to 20 μL serum 40 μL of ACN were added. After vigorously shaking for 2 min the suspension was centrifuged at 6000 rpm for 10 min. The supernatant was taken with a syringe and directly measured via HPLC-MS. The samples were analyzed on an Agilent 1260 Infinity system using a Waters Atlantis T3 column (150 mm × 4.6 mm) coupled to a Bruker Amazon SL ESI-IT mass spectrometer. Water and acetonitrile (both containing 0.1% formic acid) were used as eluents with a gradient of 1–99% acetonitrile within 29 min.

The test system of the next data set is K-562 cells. Kind of data set: cell-associated LPon fluorescence by flow cytometry (ligand release). Type of data set: cell-based, human. The settings on record: 24 h, 10 μM, normoxic. On the procedure:
Prior to the evaluation of the anticancer activity of our novel derivatives in cell culture models, we examined the stability of Co(acac)2LPon and Co(Meacac)2LPon in the presence of cells under normoxic conditions. The stability was determined by the appearance of LPon-associated fluorescence (vide supra) in BCR-ABL-driven K-562 leukemia cells via flow cytometry. […] Despite significant LPon-release from the two complexes over time (up to 24 h), in case of Co(Meacac)2LPon cell-associated fluorescence remained more than 7.5-fold lower after 24 h as compared to the free ligand.
Next, the impact of hypoxia on the stability of our novel derivatives was evaluated by monitoring intracellular fluorescence intensities under normoxic (21% O2) vs. hypoxic (0.1% O2) conditions. […] Hypoxic fluorescence activation in case of both cobalt(III) complexes was time-dependent, reaching significance after 6 h of compound incubation and resulting in 2- to 4-fold higher intensities.
Cells were seeded (1 × 10^6 cells per well) in 96-well plates, dissolved compounds were added and cells were incubated under normoxic or hypoxic cell culture conditions. Samples were measured on a BD LSRFortessa X-20 cell analyzer high throughput sampler (HTS) (BD Biosciences, East Rutherford, NJ, USA). Compound fluorescence was detected using 405 nm excitation and pacific blue (450/50 nm) band pass emission filters. […]
A general note: A flow cytometer gives signals particle by particle.

The nature of the next data set: cyclic voltammetry. The settings on record: DMF, 0.2 M [n-Bu4N][BF4], 1.5 mM complex, scan rate 100 mV s^-1. It counts as physicochemical. On the procedure:
Since the redox potential is a crucial characteristic for the activation of cobalt(III)-based prodrugs systems, we investigated the novel complexes by cyclic voltammetry in comparison to Co(acac)2LEGFR. Measurements were performed in dimethylformamide (DMF) (+0.2 M [n-Bu4N][BF4]) at a scan speed of 100 mV s^−1. […] Even at a higher scan speed of 1000 mV s^−1, the redox processes were still completely irreversible for all complexes (Fig. S5 ^†).
The compounds were dissolved in DMF (+0.2 M [n-Bu4N][BF4]) to obtain a final concentration of 1.5 mM. Electrochemical experiments were conducted on an EG&G PARC 273A potentiostat/galvanostat with a scan rate of 100–1000 mV s^−1 at room temperature. Argon was bubbled through the solution before every measurement to remove oxygen. A three-electrode configuration cell was used with a glassy carbon electrode as working electrode, which was polished before every measurement. The reference electrode was Ag/Ag^+/ACN (10 mM AgNO3) and the auxiliary electrode was a platinum wire. The potentials were referenced to an internal standard redox couple of ferrocenium/ferrocene and calculated to the NHE (E1/2 = +0.72 V vs. NHE).[63] […] Redox potentials measured relative to the Ag/AgCl/KCl (3.5 M) reference electrode and converted to the NHE using +0.205 V. Measurements were at least repeated three times and the mean values were calculated.

Another data set concerns H1975. The settings on record: cited from earlier work.
The test system of a further data set is A431. The settings on record: cited from earlier work.
The target in the next data set is ABL1 (Homo sapiens, UniProt P00519). Kind of data set: cell-free kinase inhibition assay (Z'-LYTE, SelectScreen). Type of data set: biochemical. As to conditions: 10-fold excess of ATP, 1% DMSO, read-out: IC50 against ABL1. The source says:
(§1) The test compounds were screened in a final concentration of 1% DMSO using the Z′-LYTE® Assay.

The target in another data set is FGFR1 (Homo sapiens, UniProt P11362). The data set is described as above. It counts as biochemical.
FGFR1, sequence (P11362 22-822): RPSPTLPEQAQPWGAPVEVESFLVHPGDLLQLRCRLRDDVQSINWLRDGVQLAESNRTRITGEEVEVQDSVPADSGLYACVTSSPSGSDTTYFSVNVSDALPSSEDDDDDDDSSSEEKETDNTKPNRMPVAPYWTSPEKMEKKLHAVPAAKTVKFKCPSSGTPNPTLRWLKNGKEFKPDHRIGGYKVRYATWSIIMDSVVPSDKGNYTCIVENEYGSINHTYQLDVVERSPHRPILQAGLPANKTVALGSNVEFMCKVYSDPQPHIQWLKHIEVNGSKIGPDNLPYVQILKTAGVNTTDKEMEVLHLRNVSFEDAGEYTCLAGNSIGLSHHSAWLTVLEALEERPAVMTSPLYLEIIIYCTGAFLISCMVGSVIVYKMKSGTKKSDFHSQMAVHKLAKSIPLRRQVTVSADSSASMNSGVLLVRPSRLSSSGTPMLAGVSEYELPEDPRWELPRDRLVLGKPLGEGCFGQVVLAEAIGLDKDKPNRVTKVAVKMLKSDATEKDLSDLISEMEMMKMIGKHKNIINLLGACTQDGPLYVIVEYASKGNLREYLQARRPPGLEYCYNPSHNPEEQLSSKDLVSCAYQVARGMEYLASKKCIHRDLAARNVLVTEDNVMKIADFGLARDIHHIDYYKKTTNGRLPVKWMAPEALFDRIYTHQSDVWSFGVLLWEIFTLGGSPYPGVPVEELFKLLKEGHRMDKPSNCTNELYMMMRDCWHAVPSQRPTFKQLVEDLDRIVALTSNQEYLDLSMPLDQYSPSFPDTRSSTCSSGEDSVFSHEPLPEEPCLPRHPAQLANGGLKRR
Excerpt: as §1

Data set [2] relates to p-ERK1/2 and p-S6 in K-562 cells. Kind of data set: western blot of downstream signalling, 12 h. The settings on record: K-562, 12 h, western blot. It counts as cell-based, human. The procedure: Fig. 10 Impact of the cobalt(III) complexes on the ERK1/2 and S6 under normoxic and hypoxic conditions. K-562 cells were treated with the compounds, after 12 h cell lysates were prepared and protein expression as well as phosphorylation levels of downstream pathways (p-ERK1/2 and p-S6) analyzed by western blotting. One representative experiment out of three is shown. The ratio of phosphorylated to total protein is given between the respective lanes.
K-562 cells were plated (5 × 10^5 cells per well) in 6-well plates and allowed to recover for 24 h. Subsequently, the cells were treated with the drugs in different concentrations. After 12 h cells were harvested, proteins were isolated, resolved by sodium dodecyl sulfate polyacrylamide gel electrophoresis (SDS/PAGE), and transferred onto a polyvinylidene difluoride membrane for western blotting. The following antibodies were used: ERK1/2 (p44/42) rabbit monoclonal antibody (mAb) (137F5, #4695), phospho-ERK1/2 rabbit mAb (Thr202/Tyr204) (20G11, #4376), phospho-S6 rabbit pAb (Ser240/244, #2215) (Cell Signaling Technology, Beverly, MA, USA), S6 mouse mAb (C-8. #sc-74459) (Santa Cruz Biotechnology, TX, USA) and β-actin mouse mAb (#A5441, Sigma). All primary antibodies were used in 1 : 1000 dilutions (in Tris-buffered saline containing 0.1% Tween20 (TBST) + 3% bovine serum albumin (BSA)). Secondary goat anti-mouse-IgG (Fc specific)-peroxidase antibody (#A0168, Sigma) and horseradish peroxidase(HRP)-labeled mouse anti-rabbit IgG (#sc-2357, Santa Cruz Biotechnology) were used at working dilutions of 1 : 10 000 (in TBST + 1% BSA).
A general note: A western blot detects proteins with antibodies after separation by electrophoresis.

A further data set deals with UM-UC-14 cells. Kind of data set: ligand release by UV fluorescence microscopy. Type of data set: cell-based, human. The settings on record: 10 μM, 24 h, UM-UC-14, fluorescence microscopy. On the procedure:
The enhanced stability of Co(acac)2LPon under normoxia and its hypoxia-induced ligand release was subsequently confirmed by fluorescence microscopy. Fluorescence intensities indicated a ∼2.8-fold decreased stability of the cobalt(III) complex under hypoxic vs. normoxic cell culture conditions.
UM-UC-14 cells were seeded (2.5 × 10^5 cells per well) in 12-well plates and after 24 h recovery treated with 10 μM of compounds. After 24 h incubation, the drug solutions were removed, cells were washed with PBS and microphotographs of the different treatments were taken using UV fluorescence microscopy (Nikon Eclipse Ti2 microscope with a DAPI filter and a high-pressure mercury lamp) and a 20× objective. The level of cellular fluorescence was determined from fluorescence microscopy images using ImageJ software.
Figure S9: Ligand release of Co(acac)2LPon under normoxic and hypoxic cell culture conditions in comparison to LPon using UV fluorescence microscopy. UM-UC-14 cells were incubated with 10 µM of compounds for 24 h. Images of the different treatments were taken by UV fluorescence microcopy (20X objective) and the corrected total cell fluorescence was evaluated using ImageJ software. Data in Figure S9B are given as means ± SD of ten analyzed microphotographs per compound. Statistical significance was calculated by unpaired t test with p < .05(*). […]

For data set [3], the system named is BCR-ABL-positive K-562 leukemic cells. The experiment in a line: MTT vitality assay, 72 h, normoxic vs hypoxic. Type of data set: cell-based. As to conditions: Homo sapiens, K562, 72 h, printed in picture Fig. 9A, read-out: IC50, K-562 cell viability.
Method: In case of hypoxic cell culture conditions, plated and treated cells were incubated at 37 °C, 5% CO2 and 0.1% O2 (ProOx Model C21 system, BioSpherix) in humidified incubators for the indicated time point before analysis. All investigated compounds were dissolved in dimethyl sulfoxide (DMSO) as 10 mM stock solutions and were stored at −20 °C. Dilutions in culture media supplemented with 10% fetal calf serum were made immediately before the experiments at the indicated concentrations. Corresponding dilutions of DMSO were used as untreated vehicle controls.
Cells were seeded (3–7 × 10^4 cells per well) in 96-well plates and after 24 h recovery treated with increasing concentrations of compounds in triplicates. After 72 h drug exposure under normoxic or hypoxic cell culture conditions (0.1% O2) (ProOx Model C21 system, BioSpherix), the proportion of viable cells was determined by 3-(4,5-dimethylthiazol-2-yl)-2,5-diphenyltetrazolium bromide (MTT)-vitality assay (EZ4U, Biomedica, Vienna, Austria) or by luminescence assay based on adenosine triphosphate quantification (CellTiter-Glo, Promega, Madison, Wisconsin) following the manufacturer's recommendations. […] MTT-derived cytotoxicity was expressed as IC50 values calculated from full dose–response curves using GraphPad Prism software (La Jolla, CA).
Setting [4] is: normoxic as well as hypoxic conditions.

Where two headings read alike, the source gives them in different places.

ABL1, sequence (P00519 whole entry): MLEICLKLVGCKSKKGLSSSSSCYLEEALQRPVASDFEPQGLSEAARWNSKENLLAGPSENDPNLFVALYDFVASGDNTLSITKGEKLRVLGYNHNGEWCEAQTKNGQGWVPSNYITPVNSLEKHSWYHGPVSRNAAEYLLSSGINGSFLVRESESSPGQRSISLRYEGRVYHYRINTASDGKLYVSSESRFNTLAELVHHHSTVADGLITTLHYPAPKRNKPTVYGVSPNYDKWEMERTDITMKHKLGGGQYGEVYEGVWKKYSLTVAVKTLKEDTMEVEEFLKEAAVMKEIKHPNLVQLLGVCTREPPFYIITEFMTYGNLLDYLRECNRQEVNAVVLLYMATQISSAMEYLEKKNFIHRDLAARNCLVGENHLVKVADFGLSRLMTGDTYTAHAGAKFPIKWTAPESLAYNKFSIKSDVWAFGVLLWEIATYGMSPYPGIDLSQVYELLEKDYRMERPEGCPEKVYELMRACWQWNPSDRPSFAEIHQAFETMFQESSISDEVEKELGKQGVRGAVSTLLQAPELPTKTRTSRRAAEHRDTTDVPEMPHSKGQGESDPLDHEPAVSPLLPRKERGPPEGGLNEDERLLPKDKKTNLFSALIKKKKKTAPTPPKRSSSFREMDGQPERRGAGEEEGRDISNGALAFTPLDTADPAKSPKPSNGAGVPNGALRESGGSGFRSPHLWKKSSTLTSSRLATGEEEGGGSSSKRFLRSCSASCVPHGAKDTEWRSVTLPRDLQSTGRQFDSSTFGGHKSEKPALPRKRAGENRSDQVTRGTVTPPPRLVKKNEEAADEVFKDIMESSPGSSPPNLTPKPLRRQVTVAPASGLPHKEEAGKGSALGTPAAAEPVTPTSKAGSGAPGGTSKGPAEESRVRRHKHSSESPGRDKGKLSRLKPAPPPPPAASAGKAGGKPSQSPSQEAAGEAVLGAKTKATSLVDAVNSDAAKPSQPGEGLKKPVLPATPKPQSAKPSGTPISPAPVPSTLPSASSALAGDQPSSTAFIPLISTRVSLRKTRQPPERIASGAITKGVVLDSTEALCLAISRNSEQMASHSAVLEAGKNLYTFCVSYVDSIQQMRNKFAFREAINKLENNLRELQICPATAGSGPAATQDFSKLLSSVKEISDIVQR

For the compound `CC(=O)C(C)=C(C)[O-].CC(=O)C(C)=C(C)[O-].Cc1ccc(C(=O)Nc2ccc(CNCCN)c(C(F)(F)F)c2)cc1C#Cc1cnc2cccnn12.O=C(O)C(F)(F)F.[Co+3]` [Co(Meacac)2LPon, Bis(3-methyl-2,4-pentanedionato) N-(4-(((2-aminoethyl)amino)methyl)-3-(trifluoromethyl)phenyl)-3-(imidazo[1,2-b]pyridazin-3-ylethynyl)-4-methylbenzamide cobalt(III) 2,2,2-trifluoroacetate], the “intact complex remaining in FCS” value in data set [1] (26 h, pH 7.4, 50 μM) is given as roughly 90%. Further, the “intact compound remaining in FCS” value in data set [1] (72 h, pH 7.4) is roughly 80%. Further, the “cell-associated fluorescence, fold lower than the free ligand” value in the data set with K-562 cells is reported as “more than 7.5 fold”. Moreover, the “cathodic peak potential (Co(III) to Co(II), irreversible)” value in “cyclic voltammetry” is listed as −442 mV vs. NHE.

With `[Cl-].[Cl-].[Co+2]` [CoCl2], the cytotoxic activity entry in the data set on H1975 and with A431 was “no significant cytotoxic activity” throughout.

The term IC50 denotes the midpoint of a concentration-inhibition curve. Take `Cc1ccc(C(=O)Nc2ccc(CNCCN)c(C(F)(F)F)c2)cc1C#Cc1cnc2cccnn12` [LPon, N-(4-(((2-Aminoethyl)amino)methyl)-3-(trifluoromethyl)phenyl)-3-(imidazo[1,2-b]pyridazin-3 ylethynyl)-4-methylbenzamide·3TFA]: the concentration for half-maximal inhibition (IC50) at ABL1 is 1.93 nM; at FGFR1 (cell-free, 10-fold excess of ATP, 1% DMSO, read-out: IC50 against FGFR1), 25.9 nM; in [3] (hypoxic (H, 0.1% O2)), 3.67 nM; in [3] (normoxic (N, 21% O2)) it was 4.57 nM. Further, the “factor by which FGFR inhibition is weaker than ponatinib” value at FGFR1 (cell-free IC50 ratio vs ponatinib) is roughly 5. Besides, the “activity on ERK1/2 and S6 phosphorylation, normoxic vs hypoxic” value in data set [2] was “equally active under the two oxygen conditions”. The “fluorescence intensity change (decreased stability) hypoxic vs. normoxic” value in the data set with UM-UC-14 cells is recorded as “remained unaffected”.

Consider `CC(=O)[CH-]C(C)=O.CC(=O)[CH-]C(C)=O.NCCN.[Co+2]` [[Co(II)(acac)2en]], for which the cytotoxic activity entry in the data set with H1975 (setting [4]) and in the data set with A431 (setting [4]) was “no significant cytotoxic activity” each time.

On to `CC(=O)[CH-]C(C)=O.CC(=O)[CH-]C(C)=O.F[P-](F)(F)(F)(F)F.NCCN.[Co+3]` [[Co(III)(acac)2en]PF6], for which the cytotoxic activity entry in the data set with H1975 (setting [4]) and in the data set on A431 (setting [4]) was “no significant cytotoxic activity” each time.

Source of the values: PMC8129988 (Inorganic Chemistry Frontiers, 2021).
